US8114581B2, “Methods and compositions for detecting neoplastic cells” (The Regents of the University of California, priority 2005, dated 2012)

Key:
Format in all cases: cell-based
[1] = target: T1, Src (Homo sapiens, UniProt P12931); test: Fibronectin-coated bead / laser-tweezer force-induced FRET response in HUVECs; settings: HUVECs expressing Src reporter, PP1 10 uM
T1 construct: endogenous in cells; host or cells: HeLa
Procedure: (§1) To image the mechanical-force-induced Src activation, HUVECs were first starved with 0.5% FBS for 24 h and then kept in CO2-independent medium without serum (Gibco BRL) at 37° C. in a thermostatic chamber. A Zeiss axiovert inverted microscope equipped with a 440DF20 excitation filter and a 455DRLP dichroic mirror was integrated with the laser-tweezers. CFP and YFP emission images were acquired simultaneously with an ORCA ER CCD camera (Hamamatsu) through a Dual-View module (Optical-Insights). The CFP and YFP images were aligned pixel-by-pixel with our customized Matlab program by maximizing the normalized cross correlation coefficient of CFP and YFP fluorescence intensity images:
(§2) By taking the derivative of rho 2/B(κ) in Otsu's method 30 and calculating its first local minimum, a non parametric method was developed to calculate the intensity threshold to differentiate the edges of HUVECs from the background in CFP or YFP fluorescence intensity images. The intensity threshold was used to generate a binary mask image with values outside the cell set at zero to select the pixels located within the cell body in the CFP/YFP emission ratio images. […] For statistical analysis of long-range activation of Src, a pixel located within a cell at a given time is defined as ‘distally activated’ when: (1) its emission ratio value is above a certain percentage (98%, 90%, 80% and 50% were used as the thresholds) of pixel population in the same cell after 15 min of force stimulation, and (2) the distance between the pixel and the centre of the force-imposed bead is larger than half of the virtual radius of the cell, as shown in the following formula: […]
(§3) This critical force is a measure of the maximum trapping force, at a given laser power, exerted on the bead. […] Since the maximum trapping force occurs when the laser focus is away from the center and close to the edge of the bead, the experimental trapping force with the laser focused at 3.7 um off the bead center in our experiments was calculated from the Ashkin model of trapping force to be 300 pN. […]

[2] = target: T1, Src; test: EGF-induced FRET response of Src reporter in HeLa cells
Procedure: The HeLa or MEF cells expressing the desired exogenous proteins were starved with 0.5% FBS for 36-48 h before being subjected to EGF (50 ng ml^−1) or PDGF (10 ng ml^−1) stimulation. During imaging, the cells were maintained in Hanks' balanced salt solution (HBSS) with 20 mMHEPES (pH 7.4) and 2 g 1^−1 D-glucose at 25° C. Images were collected by using MetaFluor 6.0 software (Universal Imaging) with a 440DF20 excitation filter, a 455DRLP dichroic mirror, and two emission filters controlled by a filter changer (480DF30 for CFP and 535DF25 for YFP).
The various plasmids were transfected into HeLa, MEF, SYF−/−, or 293 cells at 80% confluence using the lipofectamine method (Invitrogen). The RetroMax retroviral expression system (Imgenex) was used to introduce genes into HUVECs. Various Src reporters incorporated in PCLNCX vector were co-transfected with PCL-Ampho packaging vector into 293 cells by using lipofectamine. The supernatant of […] 293 cells was collected after 2 days of transfection and filtered through 0.45 um pore filters. HUVECs were infected with 1:1 mixture of the collected supernatant and fresh EGM in the presence of 8 ug/ml polybrene.

[3] = system: Src; test: Fibronectin-coated bead / laser-tweezer force-induced FRET response in HUVECs; settings: HUVECs, membrane-targeted reporter, 300 pN; 1 hr incubation (cytochalasin D 0.2 uM, Nocodazole 1 uM); distal, but not local, responses
Procedure: as §1, §2, §3

T1 sequence (P12931 whole entry, species assumed): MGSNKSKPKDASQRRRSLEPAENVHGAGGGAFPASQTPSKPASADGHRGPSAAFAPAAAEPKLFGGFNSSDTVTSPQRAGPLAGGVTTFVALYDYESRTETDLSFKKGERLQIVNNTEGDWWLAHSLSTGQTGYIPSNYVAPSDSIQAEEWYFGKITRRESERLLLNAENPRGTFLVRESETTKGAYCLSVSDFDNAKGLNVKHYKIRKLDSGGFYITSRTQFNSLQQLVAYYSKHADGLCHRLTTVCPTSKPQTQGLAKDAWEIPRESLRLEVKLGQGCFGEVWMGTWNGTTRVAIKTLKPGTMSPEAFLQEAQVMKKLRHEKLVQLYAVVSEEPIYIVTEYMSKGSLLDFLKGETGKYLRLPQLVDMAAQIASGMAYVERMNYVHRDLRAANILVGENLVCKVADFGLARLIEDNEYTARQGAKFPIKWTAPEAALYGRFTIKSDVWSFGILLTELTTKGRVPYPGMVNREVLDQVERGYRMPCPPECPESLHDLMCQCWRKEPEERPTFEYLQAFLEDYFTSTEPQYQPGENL

SMILES | effect on local FRET response caused by fibronectin-coated beads [1] | effect on EGF-induced FRET response of membrane-targeted reporter, inhibitor added after EGF ([2]; EGF 50 ng/ml, PP1 10 uM) | effect on EGF-induced FRET response of membrane-targeted reporter, pretreatment with inhibitor ([2]; PP1 10 uM for 1 hr before EGF 50 ng/ml) | effect on EGF-induced FRET response of Src reporter, inhibitor added after EGF ([2]; cytosolic Src reporter) | effect on EGF-induced FRET response of Src reporter, pretreatment with inhibitor ([2]; cytosolic Src reporter) | effect on force-induced distal FRET responses [3]
Cc1ccc(-c2nn(C(C)(C)C)c3ncnc(N)c23)cc1 [PP1] | reversible | reversed | prevented | reversed | markedly reduced | –
C=C1[C@@H](C)[C@H]2[C@H](Cc3ccccc3)NC(=O)[C@]23[C@H](OC(C)=O)/C=C/[C@@](C)(O)C(=O)[C@@H](C)C/C=C/[C@H]3[C@@H]1O [cytochalasin D] | – | – | – | – | – | blocked
COC(=O)Nc1nc2ccc(C(=O)c3cccs3)cc2[nH]1 [nocodazole] | – | – | – | – | – | blocked
